Values quoted from earlier work as cited in patent publication US20220241222A1, “ATOMOXETINE HYDROCHLORIDE EXTENDED RELEASE COMPOSITIONS AND METHODS OF USE” (CELISTA PHARMACEUTICALS LLC, priority 2019, published 2022).
Read-outs that look alike come from different tables or passages of the source.

What was measured:
[1] = for mean apparent plasma clearance / mean half-life: oral administration
[2] = CYP2D6 poor metabolizers vs EMs
[3] = primarily as 4-hydroxyatomoxetine-O-glucuronide
[4] = oral, immediate release capsules

**Q.** For `Cc1ccccc1O[C@H](CCN)c1ccccc1` [N-desmethylatomoxetine, N-Desmethylatomoxetine], which “plasma concentrations compared with atomoxetine” value ([1]; circulating metabolite) is on record?
**A.** Its value is “lower concentrations”.

**Q.** With `CNCC[C@@H](Oc1ccccc1C)c1ccccc1` [atomoxetine, (−)-N-Methyl-3-phenyl-3-(o-tolyloxy)-propylamine] as the compound, how does the pressor response (patients with central autonomic impairment (multiple system atrophy)) read?
**A.** Its pressor response is “large pressor responses”.

**Q.** What about the “seated and standing systolic blood pressure compared to placebo” value (pediatric dose of 18 mg) of the same compound?
**A.** The value was “significantly increases”.

**Q.** And the “AUC of atomoxetine, PMs greater than EMs” value [1, 2]?
**A.** The value was “approximately 10 fold”.

**Q.** And the “Css, max, PMs greater than EMs” value [1, 2]?
**A.** The value was “about 5 fold”.

**Q.** What about the “mean apparent plasma clearance” value ([1]; PMs) of the same compound?
**A.** The value was 0.5 mL/min/kg.

**Q.** And the mean half-life ([1]; PMs)?
**A.** Its mean half-life is 21.6 h.

**Q.** And the “mean apparent plasma clearance” value ([1]; adult EMs)?
**A.** Its value is 5.83 mL/min/kg.

**Q.** And the mean half-life ([1]; adult EMs)?
**A.** Its mean half-life is 5.2 h.

**Q.** And the “excretion in the feces” value [1, 3]?
**A.** Its value is “less than 17 % of the dose”.

**Q.** What about the “excretion in the urine” value [1, 3] of the same compound?
**A.** Its value is “greater than 80 % of the dose”.

**Q.** With `CNCC[C@@H](Oc1ccccc1C)c1ccccc1.Cl` [Atomoxetine hydrochloride, (−)-N-Methyl-3-phenyl-3-(o-tolyloxy)-propylamine hydrochloride] as the compound, how does the absolute bioavailability ([1]; extensive metabolizers) read?
**A.** Its absolute bioavailability is 63%.

**Q.** What about the “absorption after oral administration” value ([1]; from immediate release capsules) of the same compound?
**A.** The value was “well-absorbed”.

**Q.** And the “effect of food on absorption” value [1, 4]?
**A.** The value was “minimally affected by food”.

**Q.** And the estimated half-life [1, 4]?
**A.** Its estimated half-life is “about 5 hours”.

**Q.** And the absolute bioavailability ([1]; poor metabolizers)?
**A.** Its absolute bioavailability is 94%.
